Measurements as given in PubChem BioAssay (NCI).
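Dose response: 5 concentrations. Exposure: 48 h. Format: 96-well plates. Endpoint: linear interpolation; highest concentration if not reached. TGI: concentration producing complete growth inhibition.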

Assays:
Assay in all cases: NCI-60 cell line screen, 48 h
[1] = tested on: NCI/ADR-RES ovarian
[2] = tested on: HL-60(TB) leukemia
[3] = tested on: RXF 393 renal
[4] = tested on: MOLT-4 leukemia
[5] = tested on: HOP-62 NSCLC
[6] = tested on: IGROV1 ovarian
[7] = tested on: A498 renal
[8] = tested on: UO-31 renal
[9] = tested on: COLO 205 colon
[10] = tested on: SNB-19 CNS
[11] = tested on: OVCAR-4 ovarian
[12] = tested on: PC-3 prostate
[13] = tested on: BT-549 breast
[14] = tested on: T-47D breast
[15] = tested on: SK-MEL-2 melanoma
[16] = tested on: UACC-257 melanoma
[17] = tested on: HT29 colon
[18] = tested on: CCRF-CEM leukemia
[19] = tested on: MDA-MB-435
[20] = tested on: TK-10 renal
[21] = tested on: M14 melanoma
[22] = tested on: SN12C renal
[23] = tested on: NCI-H23 lung
[24] = tested on: U251 CNS
[25] = tested on: OVCAR-5 ovarian
[26] = tested on: MDA-MB-231 breast
[27] = tested on: HS 578T breast
[28] = tested on: SW-620 colon
[29] = tested on: MDA-N
[30] = tested on: SF-539 CNS
[31] = tested on: EKVX NSCLC
[32] = tested on: OVCAR-3 ovarian
[33] = tested on: MCF7 breast
[34] = tested on: MALME-3M melanoma
[35] = tested on: 786-0 renal
[36] = tested on: K-562 leukemia
[37] = tested on: ACHN renal
[38] = tested on: NCI-H522 lung
[39] = tested on: NCI-H226 lung
[40] = tested on: SR leukemia
[41] = tested on: HCT-116 colon
[42] = tested on: A549 NSCLC
[43] = tested on: SF-268 CNS
[44] = tested on: SK-MEL-28 melanoma
[45] = tested on: UACC-62 melanoma
[46] = tested on: KM12 colon
[47] = tested on: HOP-92 NSCLC
[48] = tested on: LOX IMVI melanoma
[49] = tested on: HCC-2998 colon
[50] = tested on: NCI-H460 lung
[51] = tested on: OVCAR-8 ovarian
[52] = tested on: SK-OV-3 ovarian
[53] = tested on: SF-295 CNS
[54] = tested on: DU-145 prostate
[55] = tested on: CAKI-1 renal
[56] = tested on: SK-MEL-5 melanoma
[57] = tested on: HCT-15 colon

Measured: TGI

O=C(O)COc1cccc2ccccc(=O)c12
> 100 µM: [1] | [2] | [3] | [4] | [5] | [6] | [7] | [8] | [9] | [10] | [11] | [12] | [13] | [14] | [15] | [16] | [17] | [18] | [19] | [20] | [21] | [22] | [23] | [24] | [25] | [26] | [27] | [28] | [29] | [30] | [31] | [32] | [33] | [34] | [35] | [36] | [37] | [38] | [39] | [40] | [41] | [42] | [43] | [44] | [45] | [46] | [47] | [48] | [49] | [50] | [51] | [52] | [53] | [54] | [55] | [56] | [57]
